Patent publication US20120213706A1, “RECONSTITUTED TUMOR MICROENVIRONMENT FOR ANTICANCER DRUG DEVELOPMENT” (UNIVERSITY OF MEDICINE AND DENTISTRY OF NEW JERSEY, priority 2009, published 2012)
Numbered stars: 1 amine (or outer) side, 2 acyl side, 3 side chain; on linkers, the order of the positions; unused ones are H or OH. Bridge positions count the residues as written; N and C are the ends. Square brackets hold non-standard residues; d marks the D form. Peptide text beside a SMILES is read from it. * marks the point of attachment. X1 = CC[C@H](C)[C@@H](N[*:1])[C@@H](O)CC(=O)O[C@H](C(=O)[C@H](C)C(=O)[*:2])C(C)C; NMeY = CN[C@@H](Cc1ccc(O)cc1)C(=O)O; dNMeL = CN[C@H](CC(C)C)C(=O)O; Pyruvoyl = CC(=O)C(=O)*

How the values were obtained:
Format in all cases: cell-based
Jak/Stat3 signaling = Jak/Stat3 signaling in tumor cells following treatment; conditions: following dehydrodidemnin B treatment
[1] = tested on: tumor cells in the reconstituted tumor microenvironment; assay: growth of tumor cells in the reconstituted tumor microenvironment; conditions: tumor cells established within the reconstituted tumor microenvironment
Protocol: The three cell system in Examples 1 and 2 is prepared and used to test standard chemotherapeutic agents for activity against cancer cell lines, such as the breast cancer cell lines MDAMB231 and MDAMB435 representing basal subtype and MCF7 and SKBR3 representing luminal subtype of breast cancer. Reconstitution is carried out in 96 well plates by co-culturing a fixed number of tumor cells and carcinoma-associated fibroblast-like cells plus TAMs either alone or admixed with differing amounts of cells representing cell types in tumor milieu. Tumor growth is monitored at these sites in accordance with the foregoing. As the tumor cells express luciferase, tumor growth is monitored even at early time points by bioluminescence imaging following injection of D-luciferin on a Kodak MM2000 Imager. Again, all the tumor cell lines tested in culture are tested in this assay.
The reconstituted system is used to identify synergistic combinations using a panel of standard chemotherapeutic agents and Jak/STAT3 inhibitors. The Chou Talalay combination index analysis is used and the data analyzed using Calcusyn software (Biosoft ver 3). […] Growth of tumors is monitored by bioluminescence imaging using a KODAK […] Imaging station as described earlier. […]

tumor cells = assay: tumor cell demise following treatment; conditions: following dehydrodidemnin B treatment
Text: Accordingly, the instant invention is useful in drug screening assays for known and novel therapeutics targeting either the tumor cell or components of the tumor cell environment.

[2] = tested on: FSP positive tumor stroma; assay: FSP positive tumor stroma after treatment; conditions: fibroblast surface protein (FSP) as marker for tumor stroma

CC[C@H](C)[C@H]1NC(=O)[C@@H](NC(=O)[C@@H](CC(C)C)N(C)C(=O)[C@@H]2CCCN2C(=O)C(C)=O)[C@@H](C)OC(=O)[C@H](Cc2ccc(OC)cc2)N(C)C(=O)[C@@H]2CCCN2C(=O)[C@H](CC(C)C)NC(=O)[C@@H](C)C(=O)[C@H](C(C)C)OC(=O)C[C@@H]1O [dehydrodidemnin B] (Pyruvoyl-P[dNMeL]T[X1]LP[NMeY](Me); ester 3-C)
Jak/Stat3 signaling in tumor cells (Jak/Stat3 signaling): inhibition of Jak/Stat3 signaling
growth of tumor cells [1]: can be inhibited
growth of tumor cells ([1]; listed as Dehydrodidemnin B): inhibited
fate of tumor cells after inhibition of Jak/Stat3 signaling (tumor cells): led to the demise of tumor cells
FSP positive tumor stroma [2]: decreased FSP positive tumor stroma
